Test results: ChEMBL document CHEMBL1127181, “Novel sigma receptor ligands 1” (Bioorg Med Chem Lett, 1993)

Each molecule was assayed against Glutamate [NMDA] receptor (assay: Binding affinity towards PCP receptor in guinea pig brain membrane using radiolabeled ligand [3H]TCP (1-[1-(2-thienyl)cyclohexyl]piperidine) was determined).
Format: cell membranes, Cavia porcellus

SMILES | Ki [µM]
O=C1C=C(c2ccccc2)OC12CCN(CCc1ccccc1)CC2 | > 10
O=C1C(c2ccc(F)cc2)COC12CCN(Cc1ccccc1)CC2 (centres undefined) | 2.23
O=C1C(c2ccccc2)=COC12CCN(CC1CCCCC1)CC2 | > 10
O=C1C=C(c2ccccc2)OC12CCN(Cc1ccccc1)CC2 | 4.4
CCN(CC)CCCC1(C)OC=C(c2ccccc2)C1=O (centres undefined) | 100
O=C1C(c2ccc(F)cc2)=COC12CCN(Cc1ccc(F)cc1)CC2 | 2.03
O=C1C(c2ccc(F)cc2)=COC12CCN(Cc1ccccc1)CC2 | > 10
O=C1C(c2ccc(F)cc2)=COC12CCN(CC1CCCCC1)CC2 | 12
O=C1C=C(c2ccc(F)cc2)OC12CCN(CCc1ccccc1)CC2 | 8.3
